Results: patent US9283176B2, “Benzimidazole anthelmintic compositions” (Zoetis Services LLC, priority 2008, dated 2016)

What was measured:
[1] = Triclabendazole solubility in various lactone solvents; format: physicochemical
Experimental: Still further embodiments of anthelmintic compositions representative of the present invention are prepared according to the process described in Example 1 above, except that lactone solvents other than γ-hexalactone are employed. In particular, the compositions are prepared with one of the following lactone solvents: butyrolactone, δ-hexalactone, γ-dodecalactone, δ-nonalactone, δ-decalactone, γ-decalactone, and δ-dodecalactone.

[2] = Stability studies: total moxidectin and triclabendazole levels after storage; format: physicochemical; conditions: in Composition F, 25° C. or 40° C.; for Stability of the active during storage (in words): entire 6 month storage period
Experimental: Stability studies were conducted to ensure that a composition according to the present invention was stable. Composition F of Example 3 was prepared according to the process described in Example 1 and stored at either ambient (25° C.) or 40° C. for a total period of 6 months. At the conclusion of each storage period shown in Table V below, samples were tested for total moxidectin and triclabendazole levels.

| Solvency in lactone solvents (in words) ([1]; lactone solvents of Table VIII and similar lactones and combinations) | Triclabendazole Solubility (% w/w) ([1]; solvent γ-butyrolactone) | Triclabendazole Solubility (% w/w) ([1]; solvent γ-decalactone) | Triclabendazole Solubility (% w/w) ([1]; solvent γ-dodecalactone) | Triclabendazole Solubility (% w/w) ([1]; solvent γ-hexalactone) | Triclabendazole Solubility (% w/w) ([1]; solvent γ-nonalactone) | Triclabendazole Solubility (% w/w) ([1]; solvent δ-decalactone) | Triclabendazole Solubility (% w/w) ([1]; solvent δ-dodecalactone) | Stability of the active during storage (in words) [2] | Physical state of the active during storage (in words) ([2]; up to 6 months) | SMILES |
| --- | --- | --- | --- | --- | --- | --- | --- | --- | --- | --- |
| surprisingly good solvency | >18.0 | 15.2 | 11.8 | 16.8 | 16.7 | 28.1 | 21.5 | remained stable and active | remained in solution | CSc1nc2cc(Cl)c(Oc3cccc(Cl)c3Cl)cc2[nH]1 [Triclabendazole, 5-chloro-6(2,3-dichlorophenoxy)-2-methylthio-1H-benzimidazole] |
|  |  |  |  |  |  |  |  | remained stable and active |  | CO/N=C1\C[C@]2(C[C@@H]3C[C@@H](C/C=C(\C)C[C@@H](C)/C=C/C=C4\CO[C@@H]5[C@H](O)C(C)=C[C@@H](C(=O)O3)[C@]45O)O2)O[C@H](/C(C)=C/C(C)C)[C@H]1C [Moxidectin] |
